Columns and labels:
[1] = system: carrageenin-induced edema of the rear limb of rats; experiment: carrageenin-induced edema of the rear limb of rats (anti-inflammatory activity); assay type: in vivo, rat; set-up: Anti-inflammatory activity (carrageenin-induced edema): key to the marks not given beside the values; conditions: for Anti-inflammatory activity (carrageenin-induced edema): oral, rats, after 1.5 hour, rated + to ++++; for ED30 / ED40: carrageenin-induced edema in rat; for ED30: read-out: AD30; for ED40: read-out: AD40
Description: The anti-inflammatory action of the various compounds is rated, according to its intensity, with 1 + to 4 +'s in the following Table.
1. Carrageenin-induced edema in rat

[2] = system: writhing induced by intraperitoneal acetic acid in mice; experiment: acetic acid writhing test in mice (analgesic activity); assay type: in vivo, mouse; set-up: key to Analgesic activity (writhing test): rated, according to its intensity, with from 1 + to 4 +'s, with from 1 + to 4 +'s; ++++: rated, according to its intensity, with from 1 + to 4 +'s; conditions: for Analgesic activity (writhing test): oral, mice, 0.5 hour prior to i.p. acetic acid, 15 minutes recording, rated + to ++++
Description: The analgesic activity was determined according to the conventional testing methods for said activity: the writhing test. Mice are given a single intraperitoneal injection of 0.2 ml 6°/129 acetic acid.
The test compound is administered orally 0.5 hour prior to the acetic acid injection. The number of characteristic writhing movements inducted by pain is recorded during the 15 minutes which follow the acetic acid injection.
The analgesic action of the various derivatives is rated, according to its intensity, with from 1 + to 4 +'s in the following table.

male mice = experiment: acute oral toxicity in male mice; assay type: in vivo
Description: (§1) Acute toxicity was determined orally in male mice.

[3] = system: cotton-induced granuloma in rat; experiment: cotton-induced granuloma in rat; assay type: in vivo; conditions: male rats, oral during 7 days
Description: The test is conducted according to the technique of […]. Am. Chem. Soc., 80, 3161, 1958) The male rats are distributed in randomized groups, slightly anesthetized and depilated in the dorsal area. An incision of about 1 cm is effected along the spine, and 2 pellets of carded cotton weighing each 20 mg are placed under the skin on both sides of the neck. The treatments are administered orally during 7 days, as suspensions in BT medium. The reference group is administered BT medium alone, under the same experimental conditions. 24 hours after the last ingestion, the pellets are excised and weighed.

[4] = system: ultra-violet induced erythema in guinea-pigs; experiment: ultra-violet induced erythema in guinea-pigs; assay type: in vivo, guinea-pig; conditions: intragastric
Description: Erythema is induced in depilated guinea-pigs placed at a distance of 25 cm from a 300 watt mercury vapor lamp.
The back of the guinea-pigs is covered with a coat of flexible rubber in which 3 circular perforations 8 mm in diameter are effected. Blind evaluation of the erythema is carried out, 2 hrs and 5 hrs after irradiation.
The treatment is administered by the intragastric route, under a volume of 5 ml/kg.

[5] = system: Freund-adjuvant induced arthritis in rats; experiment: Freund-adjuvant induced arthritis in rats; assay type: in vivo; conditions: Rattus norvegicus, limb volume, X-ray examination, weight curve, lowest active dosage, read-out: inhibiting activity on the development of adjuvant-induced polyarthritis, apparent from a dosage of
Description: Injection of Mycobacterium butyricum is carried out at the level of the hind limb of rats, and produces as early as the 10th day an arthritis which develops rapidly.
The inhibiting activity of the compound of Example 1 on the development of adjuvant-induced polyarthritis in rats is apparent from a dosage of 5 mg/kg.

[6] = system: hyperthermia induced in rats by subcutaneous injection of barm; experiment: antipyretic activity, barm (yeast)-induced hyperthermia in rats; assay type: in vivo, rat; conditions: po, intragastric, 17 hours after yeast injection, lowest active dosage, read-out: active from a dosage of (antipyretic activity)
Description: Hyperthermia is induced in rats by subcutaneous injection of barm, at a dosage of 4 g/kg.
The treatments are administered by the intragastric route, 17 hours after yeast injection.
The change in rectal temperature of the rats is compared, as a function of time, in the absolute reference animals, the "barm" reference animals and the treated animals.

rats = experiment: chronic toxicity tests in rats; assay type: in vivo, rat; conditions: 40 mg/kg/day
fasting rats = experiment: ulcerogenic activity in fasting rats; assay type: in vivo, rat
[7] = acute oral toxicity in male mice; assay type: in vivo; conditions: mouse, in vivo, po, male mice; read-out: LD50 per os
Description: as §1

## COc1ccc(-c2nc3n(c2-c2ccc(OC)cc2)CCS3)cc1 [Example 1, 2,3-dihydro-5,6-(bis-paramethoxyphenyl)-imidazo[2,1-b]-thiazole]
[1]
  Anti-inflammatory activity (carrageenin-induced edema): ++++
[1]; po, 1.5 h
  ED30: 5.22 mg/kg
  ED40: 7.78 mg/kg
[1]; po, 1.5 h, rat, lowest active dosage, read-out: active from a dosage of (carrageenin-induced edema)
  minimal effective dose: 3.38 mg/kg
[2]; acetic acid writhing test in mice, in words
  analgesic activity on visceral pain: highly marked analgesic activity on visceral pain
[2]
  Analgesic activity (writhing test): ++++
Male mice; mouse, in vivo, po
  LD50 per os: > 4,200 mg/kg
[3]
  activity relative to phenylbutazone (granuloma): twice as active as phenylbutazone
  inhibition of the development of a granuloma: inhibits the development of a granuloma
[4]
  protective activity, dependence on dosage (erythema): proportional to the dosage administered
[4]; duration
  protective activity still maintained ... hours after administration: ≥ 6 h
[4]; onset
  protective activity highly marked as early as the first ... hours: ≤ 3 h
[5]
  minimal effective dose: 5 mg/kg
[6]
  minimal effective dose: 3.38 mg/kg
rats
  major side-effects (chronic toxicity): failed to provide evidence of any major side-effects
Fasting rats
  ulcerogenic activity: low ulcerogenic activity found in fasting rats is equivalent to that of the reference materials

## COc1ccc(-c2nc3n(c2-c2ccc(OC)cc2)CC(C)S3)cc1 (centres unmarked) [Example 3, 2-methyl-2,3-dihydro-5,6-(bis-paramethoxyphenyl)-imidazo[2,1-b]-thiazole]
[1]
  Anti-inflammatory activity (carrageenin-induced edema): +++
[2]
  Analgesic activity (writhing test): +++
[7]
  LD50: > 2000 mg/kg

## COc1ccc(-c2nc3n(c2-c2ccc(OC)cc2)C(C)CS3)cc1 (centres unmarked) [Example 4, 3-methyl-2,3-dihydro-5,6-(bis-paramethoxyphenyl)-imidazo[2,1-b]-thiazole]
[2]
  Analgesic activity (writhing test): +++
[7]
  LD50: > 2000 mg/kg

## COc1ccc(-c2nc3n(c2-c2ccc(OC)cc2)C(C)C(C)S3)cc1 (centres unmarked) [Example 7, 2,3-dimethyl-2,3-dihydro-5,6-bis(p-methoxyphenyl)-imidazo[2,1-b]-thiazole]
[1]
  Anti-inflammatory activity (carrageenin-induced edema): +++
[2]
  Analgesic activity (writhing test): ++++

## COc1ccc(-c2nc3n(c2-c2ccc(OC)cc2)CCS3)cc1 [Example 22]
Male mice; oral, male mice
  LD50 per os: > 2,000 mg/kg

## CCCCC1C(=O)N(c2ccccc2)N(c2ccccc2)C1=O [Phenylbutazone, reference compound]
[1]; po, 1.5 h
  ED30: 16.1 mg/kg
  ED40: 27.4 mg/kg
